# In patent US6451806B2, “Methods and compositions involving opioids and antagonists thereof” (Adolor Corporation, priority 1999, dated 2002):
# How the values were obtained:
# solubility in water = type: physicochemical; conditions: except at low or high pH conditions
# Description: Zwitterionic character may be inherent to the compound, and may impart desirable properties such as poor systemic absorption and sustained local affect on the gut following oral administration.
# [1] = test system: morphine-induced constipation in mice; assay: mouse model of opioid-induced constipation (charcoal meal transit time); type: in vivo
# Description: This establishes that the compound of formula (II) is a gut-selective and peripherally-selective mu antagonist compound. In addition, it is orally effective in preventing or reversing morphine-induced constipation in mice.
# [2] = test system: loperamide-induced slowing of gut motility; assay: clinical crossover study of loperamide-induced slowing of gut motility (colonic transit time); type: in vivo; conditions: man, 8 mg b.i.d. oral loperamide
# Protocol: A clinical study in man was an 8 subject multiple crossover study of the effects of oral pre-treatment with placebo, 2.4 mg or 24 mg t.i.d. of the compound of formula (II) on slowing of gut motility induced with 8 mg of b.i.d. of oral loperamide (a peripheral mu opioid agonist). […] The graph presents the effects of 2.4 or 24 mg of the compound of formula (II) on colonic transit time (in hours) following administration of loperamide. The loperamide dose was constant in the three treatment groups.
# [3] = test system: effect of intravenous morphine sulfate on upper gastrointestinal motility; assay: Phase I study in healthy volunteers with intravenous morphine sulfate; type: in vivo, humans; conditions: 4 mg oral dose
# [4] = test system: inhibition of gastrointestinal transit produced by MS Contin; assay: Phase I study in volunteers with oral sustained-release morphine (MS Contin); type: in vivo, humans; conditions: 3 mg oral three times daily for 4 days, MS Contin 30 mg twice daily
# Description: Pupil size was used as a surrogate measure of the morphine's analgesic activity.
# [5] = test system: analgesia and pupil constriction produced by intravenous morphine sulfate; assay: Phase II clinical study, third molar extraction dental surgery, intravenous morphine sulfate; type: in vivo, humans; conditions: 4 mg total oral dose
# [6] = test system: postsurgical opioid effects, postoperative nausea and vomiting; assay: Phase II clinical study, partial colectomy or hysterectomy, postoperative nausea and vomiting (VAS); type: in vivo, humans; conditions: for patients reporting VAS nausea scores over 20 / patients exhibiting no nausea (highest VAS score=0): postoperative morphine or meperidine
# Protocol: A 78 patient Phase II clinical study was conducted which compared two doses (2 mg and 12 mg) of the compound of formula (II) versus placebo in patients undergoing partial colectomy or simple or radical hysterectomy surgical procedures. All patients in this clinical study received morphine or meperidine infusions to treat postoperative pain. Oral doses of compound (II) or placebo were administered to block postsurgical opioid effects, including postoperative nausea and vomiting. Results of this study comparing patients receiving 12 mg of compound (II) and placebo are depicted graphically in FIGS. 2A and 2B.
# The intensity of nausea was evaluated by patients on a 100-point visual analog scale (VAS) with VAS=0 being no nausea and VAS=100 being the worst nausea that a patient could imagine. The highest VAS nausea score (worst nausea) recorded for each patient was computed and the distributions of these maximum values were compared among the treatment groups. […] The overall treatment differences in the distributions were significant when compared using a Kruskal-Wallis test (P=0.0184). The improved outcomes observed in the 12 mg per day dose group are evident in the pairwise comparisons based on the Wilcoxon rank sum tests.
# [7] = test system: opioid-induced nausea and pruritus; conditions: Yuan, C.-S. et al. Drug and Alcohol Dependence 1998, 52, 161; cited from earlier work
Structure (SMILES),solubility in water (solubility in water),reversal of morphine-induced constipation ([1]; chronic morphine treated mice),"prevention of acute morphine-induced constipation (charcoal meal transit time) ([1]; mice, orally administered)",loperamide-induced slowing of gut motility (colonic transit time) ([2]; 2.4 mg t.i.d. oral pre-treatment),loperamide-induced slowing of gut motility (colonic transit time) ([2]; 24 mg t.i.d. oral pre-treatment),effect of intravenous morphine sulfate on upper gastrointestinal motility ([3]; P<0.01),morphine-induced nausea ([3]; P=0.07),MS Contin effects on pupil size (surrogate of analgesic activity) [4],inhibition of gastrointestinal transit produced by oral sustained-release morphine [4],patients withdrawn for adverse effects [5],antagonism of analgesia produced by intravenous morphine sulfate ([5]; patients),antagonism of pupil constriction produced by intravenous morphine sulfate ([5]; patients),reduction in postoperative pain control ([6]; 2 mg and 12 mg oral doses),serious adverse side effects judged related to the compound ([6]; 2 mg and 12 mg oral doses),patients reporting VAS nausea scores over 20 ([6]; 2 mg dose group),patients exhibiting no nausea (highest VAS score=0) ([6]; 2 mg per day oral),patients exhibiting no nausea (highest VAS score=0) ([6]; 12 mg per day oral),patients reporting VAS nausea scores over 20 ([6]; 12 mg per day oral),"distribution of highest VAS nausea score compared to placebo ([6]; 12 mg per day, Wilcoxon rank sum test, P=0.0072)",incidence of opioid-induced nausea and pruritus [7]
C[C@H]1CN(C[C@H](Cc2ccccc2)C(=O)NCC(=O)O)CCC1(C)c1cccc(O)c1 (some centres unmarked) [compound of formula (II)],low solubility in water,even more potent in reversing morphine-induced constipation,prevented acute morphine-induced constipation,prevented loperamide-induced slowing of gut motility,prevented loperamide-induced slowing of gut motility,blocked the effect of intravenous morphine sulfate on upper gastrointestinal motility,trend toward antagonizing morphine-induced nausea,without antagonizing MS Contin® effects on pupil size,blocked the inhibition of gastrointestinal transit,No patients were withdrawn for adverse effects,did not antagonize,did not antagonize,None of the patients,No patients experienced serious adverse side effects,67%,approximately 25%,~40%,27%,statistically significantly improved,–
C[N@+]1(CC2CC2)CC[C@]23c4c5ccc(O)c4O[C@H]2C(=O)CC[C@@]3(O)[C@H]1C5 [methylnaltrexone],–,–,–,–,–,–,–,–,–,–,–,–,–,–,–,–,–,–,–,effectively reduce the incidence of opioid-induced nausea and pruritus
